Assay results taken from patent US4088755A, “Medicament for remedying schizophrenia” (priority 1975, dated 1978).
Each block holds one compound with its values, some of them ahead of it.

Key:
[1] = system: patients with schizophrenia; assay: Clinical data: case reports (Cases 1 to 6) of schizophrenic patients on neuroleptics, L-Dopa and TRH; assay type: in vivo, human
[2] = system: patients with schizophrenia; assay: as above; assay type: in vivo, human; remark: listed apart in the source
Method: The following clinical data as well as Examples are only for illustrative purposes and are not at all intended to limit or to restrict the scope of the invention.
On April 14, they came back to their home town and, on the following day, was admitted to hospital.
On July 10, TRH tartrate monohydrate 4 mg. (2.73 mg. in terms of free TRH) per day (2 mg. each in the morning and night) began to be administered orally in combination with thioridazine, 50 mg. per day, and trihexyphenydyl 6 mg. per day. […] On July 31, the administration of TRH was stopped.
In February 1961, the patient was admitted for the first time to Y hospital in a state of catatonic stupor. After receiving electroshock therapy and chlorpromazine, they were discharged from the hospital on April 19 of the same year. On May 26, 1966 they were again admitted to the same hospital this time in a state of catatonic excitement. […] Beginning on April 3, 1971, thioridazine, 300 mg. per day, and L-Dopa, 400 mg. daily, were added to the therapeutic regime. […] From the 9th day on, the dosage of L-Dopa was increased to 600 mg. daily. […] At the 19th week, the dosage of L-Dopa was reduced to 400 mg. and the drug was discontinued that week-end.
Hospital therapy was started with chlorpromazine, 400 mg. per day, and spiperone, 1 mg. per day. […] Consequently, the dosage of chlorpromazine was raised to 500 mg. per day. […] Beginning on August 9, penfluridol, 20 to 40 mg. twice weekly, was added to the preceding regimen of chlorpromazine 500 mg. daily. On June 26, 1973, the dosage of chlorpromazine was reduced to 200 mg. per day. Shortly thereafter, L-Dopa, 100 mg. daily, was added to the regimen from July 5 on. The dosage of L-Dopa was then increased gradually up to 600 mg. per day and finally discontinued on August 30.
On July 2, 1974, they were started on clocapramine, 75 mg. daily, to which TRH tartrate monohydrate, 4 mg. (2.73 mg. in terms of free TRH) daily, was orally added from July 29 on.

[3] = system: psychotic patients / patients with schizophrenia; assay type: in vivo, human
Description: L-Pyroglutamyl-L-histidyl-L-prolinamide (thyrotropin-releasing hormone; hereinafter referred to as TRH) is a hypothalamic hormone which can be synthesized chemically and has been used as a diagnostic agent or as an antidepressant. […] It is known, however, that, although the onset of the effect of TRH on psychotic patients is very rapid, the duration of its effects is rather short. Thus, TRH alone cannot be a practical remedy for psychotic patients.
On the other hand, according to the present invention, a deterioration of the patients considered to be caused by TRH in the combined use is negligible and, therefore, determination of the dose is very easy.
Furthermore, although the effect of TRH on pyschotic patients is known to be transient, t therapeutic effects in accordance with the present invention last long even after withdrawal of TRH or its physiologically acceptable salts, alone or together with neuroleptics, which are administered to patients in combination. In this way, long lasting therapeutic effects, as well as the rapid onset of the effects are another excellent characteristic of this invention.

[4] = system: psychotic patients / patients with schizophrenia; conditions: cited from earlier work

Compound: O=C(CCCN1CCC(O)(c2ccc(Cl)cc2)CC1)c1ccc(F)cc1 [Haloperidol]
Clinical outcome, Case 4, haloperidol ([1]; 4 mg daily initially, increased up to 100 mg): failed to elicit any appreciable symptomatic response

Compound: N[C@@H](Cc1ccc(O)c(O)c1)C(=O)O [L-Dopa, L-3,4-dihydroxyphenylalanine]
Clinical outcome, Case 2, L-Dopa with thioridazine (1971) ([2]; person, L-Dopa 400-600 mg daily with thioridazine 300 to 100 mg per day, 19th week): had no morbid experience and appeared to have a clear insight | Clinical outcome, Case 3, L-Dopa with thioridazine ([1]; L-Dopa 300 mg daily with thioridazine 200 mg daily): their spontaneity increased to an extent greater than that achieved before | Clinical outcome, Case 2, L-Dopa therapy (1973) ([1]; L-Dopa 100 up to 600 mg per day added to chlorpromazine 200 mg per day and penfluridol, autism and abulia persisted): His general clinical picture improved to a considerable extent | Time condition remained the same after withdrawal of L-Dopa, Case 3 ([1]; after about 5 months of usage with thioridazine): about 4 months | Clinical outcome, Case 3, L-Dopa with chlorpromazine ([1]; person, L-Dopa 400 mg with chlorpromazine 300 mg per day, end of 3rd week): an appreciable improvement in their facial expression | Side effects, Case 3, L-Dopa 1000 mg daily ([1]; with chlorpromazine 300 mg per day): they seemed irritated to some extent and complained of sleeping trouble | Side effects, Case 3, L-Dopa 1200 mg ([1]; with chlorpromazine 300 mg per day, led to discontinuation): appearance of auditory hallucination | Side-effects of L-Dopa in combined use ([3]; human, in vivo): an excessive does of L-Dopa results in the production of side-effects in the patients | Effect of L-Dopa in small doses with conventionally used neuroleptics ([3]; schizophrenia, observed by the present inventors): marked improvement of the overall clinical picture in schizophrenia

Deterioration of the patients considered to be caused by TRH in the combined use ([3]; human, in vivo): negligible
Compound: NC(=O)[C@@H]1CCCN1C(=O)[C@H](Cc1cnc[nH]1)NC(=O)[C@@H]1CCC(=O)N1 [TRH, L-Pyroglutamyl-L-histidyl-L-prolinamide]
Time remission maintained after withdrawal of TRH, Case 2 ([2]; on clocapramine 75 mg daily alone, remission maintained most of the time): 4 months | Effect of TRH alone in patients with schizophrenia ([4]; The Lancet, July 7, 1973, pages 43 and 44): produce emotional warmth, lucidity of though and accessibility of psychotherapy | Duration of effects of TRH alone ([4]; psychotic patients): rather short | Onset of effect of TRH alone ([4]; psychotic patients): very rapid | Persistence of remission after withdrawal of TRH, Case 1 ([1]; TRH stopped July 31, other drugs continued): His state of remission has been maintained until now | Persistence of improvement after withdrawal of TRH, Case 5 ([1]; TRH stopped on 15th day): the improvement has continued even after withdrawal of TRH | Clinical outcome, Case 3, TRH with thioridazine ([1]; TRH tartrate monohydrate 8 mg daily (5.46 mg free TRH) orally with thioridazine 200 mg daily for two weeks, from 4th day): Their participation in work and recreational activities became more positive and their action became more agile than when they were placed on L-Dopa | Onset of subjective effect, Case 6 ([1]; i.v. TRH, patient felt light in the head and free from depressed feeling): One hour after the first injection | Persistence of effect of TRH therapy after discontinuation, Case 3 ([1]; on thioridazine alone): two | Clinical outcome, Case 6, intravenous TRH with neuroleptics ([1]; person, 730 μg TRH tartrate monohydrate (500 μg free TRH)/day i.v., 5 injections, with perphenazine 12 mg/day, diazepam 10 mg/day, vegetamim B 1 tablet/day): Remarkable improvement in the symptoms was recognized subjectively as well as objectively

Compound: CN(C)CCCN1c2ccccc2Sc2ccc(Cl)cc21 [chlorpromazine, Chlorpromazine]
Clinical outcome, Case 2, chlorpromazine with spiperone ([2]; chlorpromazine 400 mg per day and spiperone 1 mg per day, other symptoms virtually unaffected): their negativism and psychomotor excitement seemed to disappear almost completely | Clinical outcome, Case 4, oral chlorpromazine ([1]; person, initial 100 mg daily, gradually increasing dose): without result
